Reference: ChEMBL document CHEMBL6114960, “Discovery of First-in-Class FXR and HSD17B13 Dual Modulator for the Treatment of Metabolic Dysfunction-Associated Fatty Liver Disease” (J Med Chem, 2025)

Key:
Assay type in all cases: cell-based
Progesterone receptor = target: T1, Progesterone receptor (Homo sapiens, UniProt P06401); assay: Agonist activity at progesterone receptor (unknown origin) transfected in green monkey CV-1 cells co-transfected with NHR responsive luciferase reporter incubated for 18 hrs by luciferase assay
T1 sequence (P06401 whole entry): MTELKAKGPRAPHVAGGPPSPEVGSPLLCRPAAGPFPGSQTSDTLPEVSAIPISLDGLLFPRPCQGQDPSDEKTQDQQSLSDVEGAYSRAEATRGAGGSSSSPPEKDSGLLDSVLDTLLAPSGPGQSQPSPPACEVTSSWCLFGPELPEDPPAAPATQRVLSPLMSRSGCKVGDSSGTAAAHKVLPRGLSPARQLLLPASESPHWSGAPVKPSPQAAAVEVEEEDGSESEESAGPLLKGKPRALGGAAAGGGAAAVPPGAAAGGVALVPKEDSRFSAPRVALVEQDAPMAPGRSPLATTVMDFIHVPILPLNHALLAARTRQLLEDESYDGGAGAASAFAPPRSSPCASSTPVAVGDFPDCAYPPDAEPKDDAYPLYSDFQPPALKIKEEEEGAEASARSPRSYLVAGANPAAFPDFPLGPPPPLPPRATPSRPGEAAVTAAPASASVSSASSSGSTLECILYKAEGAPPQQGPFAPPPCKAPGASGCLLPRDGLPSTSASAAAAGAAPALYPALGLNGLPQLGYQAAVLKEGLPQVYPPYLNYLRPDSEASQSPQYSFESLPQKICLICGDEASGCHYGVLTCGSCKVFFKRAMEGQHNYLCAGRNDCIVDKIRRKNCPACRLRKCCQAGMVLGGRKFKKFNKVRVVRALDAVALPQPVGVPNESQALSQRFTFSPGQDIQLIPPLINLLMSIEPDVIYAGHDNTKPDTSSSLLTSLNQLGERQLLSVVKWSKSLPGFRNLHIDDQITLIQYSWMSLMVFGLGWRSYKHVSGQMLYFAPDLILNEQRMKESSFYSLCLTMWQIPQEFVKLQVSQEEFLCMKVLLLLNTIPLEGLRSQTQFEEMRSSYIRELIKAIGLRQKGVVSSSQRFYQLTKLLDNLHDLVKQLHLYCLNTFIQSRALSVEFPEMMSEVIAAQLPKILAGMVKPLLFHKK

Bile acid receptor = target: T2, Bile acid receptor (Homo sapiens, UniProt Q96RI1); assay: Agonist activity at FXR (unknown origin) transfected in human HepG2 cells incubated for 24 hrs by luciferase assay
T2 sequence (Q96RI1 whole entry): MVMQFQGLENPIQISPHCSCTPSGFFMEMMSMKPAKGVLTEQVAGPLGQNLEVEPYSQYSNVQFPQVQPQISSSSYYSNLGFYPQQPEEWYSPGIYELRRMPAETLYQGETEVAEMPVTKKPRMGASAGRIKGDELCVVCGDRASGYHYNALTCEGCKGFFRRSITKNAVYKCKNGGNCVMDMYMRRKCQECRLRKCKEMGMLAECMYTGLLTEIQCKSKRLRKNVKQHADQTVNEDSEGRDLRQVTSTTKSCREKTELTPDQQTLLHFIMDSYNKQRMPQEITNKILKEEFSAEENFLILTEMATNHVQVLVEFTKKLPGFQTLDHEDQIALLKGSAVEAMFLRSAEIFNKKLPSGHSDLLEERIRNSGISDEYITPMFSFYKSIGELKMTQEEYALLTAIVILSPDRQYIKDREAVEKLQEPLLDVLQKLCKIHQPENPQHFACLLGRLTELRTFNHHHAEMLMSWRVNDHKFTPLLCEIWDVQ

Androgen receptor = target: T3, Androgen receptor (Homo sapiens, UniProt P10275); assay: Agonist activity at androgen receptor (unknown origin) transfected in green monkey CV-1 cells co-transfected with NHR responsive luciferase reporter incubated for 18 hrs by luciferase assay
T3 sequence (P10275 whole entry): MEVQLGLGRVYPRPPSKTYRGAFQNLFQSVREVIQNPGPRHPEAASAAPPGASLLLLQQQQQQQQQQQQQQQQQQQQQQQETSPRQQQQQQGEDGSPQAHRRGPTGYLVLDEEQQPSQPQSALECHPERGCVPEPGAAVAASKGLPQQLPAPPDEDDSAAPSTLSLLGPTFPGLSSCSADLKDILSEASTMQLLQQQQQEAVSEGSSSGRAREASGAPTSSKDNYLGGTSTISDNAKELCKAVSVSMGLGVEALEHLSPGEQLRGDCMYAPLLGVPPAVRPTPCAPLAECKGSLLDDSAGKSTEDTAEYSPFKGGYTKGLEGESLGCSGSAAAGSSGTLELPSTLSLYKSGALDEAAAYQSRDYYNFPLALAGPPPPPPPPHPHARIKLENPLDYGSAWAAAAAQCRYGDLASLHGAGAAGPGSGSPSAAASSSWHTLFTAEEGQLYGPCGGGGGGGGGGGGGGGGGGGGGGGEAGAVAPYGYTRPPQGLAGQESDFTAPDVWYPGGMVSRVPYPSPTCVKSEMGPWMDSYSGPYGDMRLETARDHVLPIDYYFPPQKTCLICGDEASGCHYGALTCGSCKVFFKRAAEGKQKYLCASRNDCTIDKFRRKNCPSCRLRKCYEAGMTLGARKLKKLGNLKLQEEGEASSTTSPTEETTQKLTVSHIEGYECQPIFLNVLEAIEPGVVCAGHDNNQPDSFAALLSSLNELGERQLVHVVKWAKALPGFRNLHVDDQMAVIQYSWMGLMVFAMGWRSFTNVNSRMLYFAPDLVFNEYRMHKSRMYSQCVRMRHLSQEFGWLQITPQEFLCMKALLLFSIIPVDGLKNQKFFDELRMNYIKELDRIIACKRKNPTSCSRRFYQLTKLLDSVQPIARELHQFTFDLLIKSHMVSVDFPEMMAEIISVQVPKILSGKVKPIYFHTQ

[1] = target: T4, Retinoic acid receptor gamma (Homo sapiens, UniProt P13631); assay: Agonist activity at RARgamma (unknown origin) transfected in green monkey CV-1 cells co-transfected with NHR responsive luciferase reporter incubated for 18 hrs by luciferase assay
T4 sequence (P13631 whole entry): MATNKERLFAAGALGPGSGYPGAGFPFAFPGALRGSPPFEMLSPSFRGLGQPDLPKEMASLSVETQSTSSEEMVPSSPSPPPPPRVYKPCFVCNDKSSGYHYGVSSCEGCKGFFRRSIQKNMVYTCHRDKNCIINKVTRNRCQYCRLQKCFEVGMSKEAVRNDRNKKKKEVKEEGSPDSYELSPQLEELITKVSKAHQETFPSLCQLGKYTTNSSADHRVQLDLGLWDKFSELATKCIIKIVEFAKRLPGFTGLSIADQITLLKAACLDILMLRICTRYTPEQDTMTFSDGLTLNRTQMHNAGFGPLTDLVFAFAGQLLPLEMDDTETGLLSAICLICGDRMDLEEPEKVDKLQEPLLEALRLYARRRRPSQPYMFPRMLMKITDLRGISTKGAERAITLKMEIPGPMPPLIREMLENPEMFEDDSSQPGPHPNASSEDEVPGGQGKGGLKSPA

- EC50 (Progesterone receptor): > 10 µM
- EC50 (Bile acid receptor): 0.132 µM
- EC50 (Androgen receptor): > 10 µM
- EC50 [1]: > 10 µM
SMILES: O=C(O)c1ccc(-c2ccc(OCc3c(-c4c(Cl)cccc4Cl)noc3C3CC3)cc2)cc1
